Where two headings read alike, the source gives them in different places.
Legend:
Type in all cases: cell-based, HIV-1
HIV-IIIb (wildtype) = assay: Antiviral assay in MT4 cells, HIV-IIIb wildtype; conditions: read-out: WT EC50
How it was run: (§1)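 Luminescence from CellTiter-Glo after a 5-day culture served as the measure of HIV-1 replication in MT4 cells. Cells were infected beforehand for 3 h with HIV-IIIb (0.004 m.o.i.) and exposed to ten 3-fold compound dilutions. EC50 corresponds to a 50% signal decrease.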

HIV-IIIb IN T174I BT = assay: Antiviral assay in MT4 cells, HIV-IIIb IN T174I BT virus (from viral breakthrough); conditions: Human immunodeficiency virus 1, IIIB, MT4, 120 h, read-out: T174I BT EC50, MT4 cells, HIV-IIIb IN T174I BT (viral breakthrough), 5 days, CellTiter-Glo
How it was run: as §1

HIV-IIIb IN T174I DE = assay: Antiviral assay in MT4 cells, HIV-IIIb IN T174I DE virus (from dose escalation passaging); conditions: Human immunodeficiency virus 1, IIIB, MT4, 120 h, read-out: T174I DE EC50, MT4 cells, HIV-IIIb IN T174I DE (dose escalation), 5 days, CellTiter-Glo
How it was run: as §1

[1] = Human immunodeficiency virus 1, IIIB, MT4, 120 h
[2] = Human immunodeficiency virus 1, 120 h, MT4 cells, HIV-IIIb wildtype, 5 days, CellTiter-Glo

Row | SMILES | EC50 (HIV-IIIb (wildtype); [1]) | EC50 (HIV-IIIb IN T174I BT) | EC50 (HIV-IIIb IN T174I DE) | EC50 (HIV-IIIb (wildtype); [2])
1 | [2H]C([2H])([2H])n1nc(C2CCN(C3COC3)CC2)c2nc(-c3nc4cc(C)c([C@H](OC(C)(C)C)C(=O)O)c(-c5ccc(Cl)cc5)c4s3)ccc21 [Compound 176, (S)-2-(tert-butoxy)-2-(7-(4-chloro-phenyl)-5-methyl-2-(1-(methyl-d3)-3-(1-(oxetan-3-yl)piperidin-4-yl)-1H-pyrazolo[4,3-b]pyridin-5-yl)benzo[d]thiazol-6-yl)acetic acid] | 3 nM | 85 nM | 214 nM | 
2 | COC(=O)N1CC(N2CCC(c3nn(C(F)F)c4ccc(-c5nc6cc(C)c([C@H](OC(C)(C)C)C(=O)O)c(-c7ccc(Cl)cc7)c6s5)cc34)CC2)C1 [Compound 44, (S)-2-(tert-butoxy)-2-(7-(4-chlorophenyl)-2-(1-(difluoromethyl)-3-(1-(1-(methoxycarbonyl)azetidin-3-yl)piperidin-4-yl)-1H-indazol-5-yl)-5-methylbenzo[d]thiazol-6-yl)acetic acid] | 30 nM | 600 nM | 776 nM | 
3 | Cc1cc2nc(-c3ccc4c(c3)c(N3CC5CC(C3)O5)nn4C)sc2c(-c2ccc(Cl)cc2)c1[C@H](OC(C)(C)C)C(=O)O [Compound 143, (2S)-2-(2-(3-(6-oxa-3-azabicyclo [3.1.1]heptan-3-yl)-1-methyl-1H-indazol-5-yl)-7-(4-chlorophenyl)-5-methylbenzo [d]thiazol-6-yl)-2-(tert-butoxy) acetic acid] |  | 5780 nM | 5610 nM | 27 nM
4 | Cc1cc2nc(-c3ccc4c(n3)c(C3CCN(C5COC5)CC3)nn4C3CC3)sc2c(-c2ccc(Cl)cc2)c1[C@H](OC(C)(C)C)C(=O)O [Compound 178, (S)-2-(tert-butoxy)-2-(7-(4-chloro-phenyl)-2-(1-cyclo-propyl-3-(1-(oxetan-3-yl)piperidin-4-yl)-1H-pyrazolo[4,3-b]pyridin-5-yl)-5-methylbenzo[d]thiazol-6-yl) acetic acid] | 4 nM | 121 nM | 317 nM | 
5 | Cc1cc2nc(-c3cnc4c(c3)c(C3CCN(C)CC3)cn4C)sc2c(-c2ccc(Cl)cc2)c1[C@H](OC(C)(C)C)C(=O)O [Compound 106, (S)-2-(tert-butoxy)-2-(7-(4-chlorophenyl)-5-methyl-2-(1-methyl-3-(1-methylpiperidin-4-yl)-1H-pyrrolo[2,3-b]pyridin-5-yl)benzo[d]thiazol-6-yl)acetic acid] | 29 nM | 864 nM | 3080 nM | 
6 | COCCN1CC(c2nn(C)c3ccc(-c4nc5cc(C)c([C@H](OC(C)(C)C)C(=O)O)c(-c6ccc(Cl)cc6)c5s4)cc23)C1 [Compound 56, (S)-2-(tert-butoxy)-2-(7-(4-chlorophenyl)-2-(3-(1-(2-methoxyethyl)azetidin-3-yl)-1-methyl-1H-indazol-5-yl)-5-methylbenzo[d]thiazol-6-yl)acetic acid] | 4 nM | 1390 nM | 2070 nM | 
7 | Cc1cc2nc(-c3ccc4c(c3)c(N3CCCN(C)CC3)nn4C)sc2c(-c2ccc(Cl)cc2)c1[C@H](OC(C)(C)C)C(=O)O [Compound 132, (S)-2-(tert-butoxy)-2-(7-(4-chloro-phenyl)-5-methyl-2-(1-methyl-3-(4-methyl-1,4-diazepan-1-yl)-1H-indazol-5-yl)benzo[d]thiazol-6-yl)acetic acid] | 25 nM | 1100 nM | 1680 nM | 
8 | Cc1cc2nc(-c3ccc4c(c3)c(C3CCN(C5COC5)CC3)nn4C)sc2c(-c2ccc(Cl)cc2)c1[C@H](OC1CC1)C(=O)O [Compound 22, (S)-2-(7-(4-chlorophenyl)-5-methyl-2-(1-methyl-3-(1-(oxetan-3-yl)piperidin-4-yl)-1H-indazol-5-yl)benzo[d]thiazol-6-yl)-2-cyclopropoxyacetic Acid] |  | 48 nM | 108 nM | 23 nM
9 | Cc1cc2nc(-c3ccc4c(c3)c(N3CCN(C5(C)COC5)CC3)nn4C)sc2c(-c2ccc(Cl)cc2)c1[C@H](OC(C)(C)C)C(=O)O [Compound 207, (S)-2-(tert-butoxy)-2-(7-(4-chloro-phenyl)-5-methyl-2-(1-methyl-3-(4-(3-methyloxetan-3-yl)piperazin-1-yl)-1H-indazol-5-yl)benzo[d]thiazol-6-yl)acetic acid] | 4 nM | 380 nM | 693 nM | 
10 | CC(=O)N1CC(N2CCC(c3nn(C(F)F)c4ccc(-c5nc6cc(C)c([C@H](OC(C)(C)C)C(=O)O)c(-c7ccc(Cl)cc7)c6s5)cc34)CC2)C1 [Compound 43, (S)-2-(2-(3-(1-(1-acetylazetidin-3-yl)piperidin-4-yl)-1-(difluoromethyl)-1H-indazol-5-yl)-7-(4-chlorophenyl)-5-methylbenzo[d]thiazol-6-yl)-2-(tert-butoxy)acetic acid] | 26 nM | 313 nM | 409 nM | 
11 | Cc1cc2nc(-c3ccc4c(c3)c(C3CCN(C[C@@H]5CCN5C)CC3)nn4C)sc2c(-c2ccc(Cl)cc2)c1[C@H](OC(C)(C)C)C(=O)O [Compound 149, (S)-2-(tert-butoxy)-2-(7-(4-chloro-phenyl)-5-methyl-2-(1-methyl-3-(1-(((S)-1-methyl-azetidin-2-yl)methyl)piperidin-4-yl)-1H-indazol-5-yl)benzo[d]thiazol-6-yl) acetic acid] | 11 nM | 80 nM | 98 nM | 
12 | COCCN1CCN(c2nn(C)c3ccc(-c4nc5cc(C)c([C@H](OC(C)(C)C)C(=O)O)c(-c6ccc(Cl)cc6)c5s4)cc23)C1=O [Compound 79, (S)-2-(tert-butoxy)-2-(7-(4-chlorophenyl)-2-(3-(3-(2-methoxyethyl)-2-oxoimidazolidin-1-yl)-1-methyl-1H-indazol-5-yl)-5-methylbenzo[d]thiazol-6-yl)acetic acid] | 7 nM | 2320 nM | 2180 nM | 
13 | COC(=O)N(C)C1CN(c2nn(C)c3ccc(-c4nc5cc(C)c([C@H](OC(C)(C)C)C(=O)O)c(-c6ccc(Cl)cc6)c5s4)cc23)C1 [Compound 102, (S)-2-(tert-butoxy)-2-(7-(4-chlorophenyl)-2-(3-(3-((methoxycarbonyl)(methyl)amino)azetidin-1-yl)-1-methyl-1H-indazol-5-yl)-5-methylbenzo[d]thiazol-6-yl)acetic acid] | 13 nM | 934 nM | 1270 nM | 
14 | COC(=O)N1CC(N2CCC(c3cn(C)c4ncc(-c5nc6cc(C)c([C@H](OC(C)(C)C)C(=O)O)c(-c7ccc(Cl)cc7)c6s5)nc34)CC2)C1 [Compound 199, (S)-2-(tert-butoxy)-2-(7-(4-chloro-phenyl)-2-(7-(1-(1-(methoxycarbonyl)azetidin-3-yl)piperidin-4-yl)-5-methyl-5H-pyrrolo[2,3-b]pyrazin-2-yl)-5-methylbenzo[d]thiazol-6-yl) acetic acid] | 4 nM | 149 nM | 770 nM | 
15 | Cc1cc2nc(-c3ccc4c(c3)c(C3CCN(C5CC(F)(F)C5)CC3)nn4C)sc2c(-c2ccc(Cl)cc2)c1[C@H](OC(C)(C)C)C(=O)O [Compound 155, (S)-2-(tert-butoxy)-2-(7-(4-chloro-phenyl)-2-(3-(1-(3,3-difluorocyclo-butyl)piperidin-4-yl)-1-methyl-1H-indazol-5-yl)-5-methylbenzo[d]thiazol-6-yl) acetic acid] | 13 nM | 922 nM | 1920 nM | 

From patent US10800772B2 (Gilead Sciences, Inc., priority 2016, dated 2020)
